{
  "source": "patent US10945975B2",
  "about": "“Delaying latency to seizure by combinations of ketone supplements” (priority 2016, dated 2021)",
  "format_in_all_cases": "in vivo, Sprague-Dawley rats",
  "key": {"rat model of CNS-OT [1]": {"system": "rat model of CNS-OT", "assay": "Latency to seizure in rat model of CNS-OT (hyperbaric oxygen, 5 ATA)", "details": "5 g/kg", "method": "(§1) The effect of various ketogenic compositions on latency to seizure and seizure severity was tested in a rat model of CNS-OT. Adult male Sprague-Dawley rats (n=60), 250-300 grams (Harlan) were used in the experiments described herein. Rats were given normal chow and water ad libitum and kept on a 12-hour light/dark cycle. At […], the rats were assigned to one of 5 treatment groups: control (water), 1,3-butanediol acetoacetate diester (KE, 10 g/kg), KE/2 (KE, 5 g/kg), KE+MCT (1,3-butanediol acetoacetate diester+medium chain triglyceride, 5 g/kg+5 g/kg) and KS+MCT (Na^+Ca^2+BHB 5 g/kg+MCT 5 g/kg). Rats received one dose of the designated ketogenic agent or water by oral gavage. Rats were then placed into the hyperbaric chamber 29-30 minutes after treatment, and pressurized to 5 atmospheres as provided below, such that rats were exposed to the hyperbaric conditions at 60 minutes after treatment.\nThe hyperbaric system consisted of two main elements: 1) a plexiglass chamber (˜3 liter capacity, Diamond Box, Buxco, Electronics Inc., model PLY3114), that housed the rat during the experiment, and 2) a hyperbaric chamber (Reimers System Inc.—7.8 ATA MWP), that contained the plexiglass chamber and functioned as the pressure vessel. Both chambers were connected to an air compressor (oil-less rotary scroll compressor—model DK6086, Powerex).\n(§2) Rats were placed in the hyperbaric chamber, where the rats were allowed 10 minutes to acclimate in air. Then the plexiglass chamber was filled with pure oxygen, and the rats were allowed another 15 minutes to acclimate. The outer chamber was pressurized using air (capacity ˜205 liters) to minimize the risk of an electrical-induced fire. Next, both chambers were compressed to 5 atmospheres absolute (ATA) at a rate of approximately 1 ATA/min. Each experiment was visually monitored via a live camera.\nLatency to seizure (LS) was calculated from the moment at which the internal and the external chambers reached 5 ATA until the onset of CNS-OT seizures, as identified above. After the onset of seizures, the plexiglass chamber was flushed with air to quickly terminate seizure, and both chambers decompressed to sea level. Decompression rate was 1 ATA/min. A small sample of blood was drawn and tested immediately for glucose and beta-hydroxybutyrate levels."}, "rat model of CNS-OT [2]": {"system": "rat model of CNS-OT", "assay": "Seizure severity score in rat model of CNS-OT", "details": "5 g/kg, oral gavage; FIG. 4", "method": "as §1\nas §2, with “Next, both chambers were compressed to 5 atmospheres absolute (ATA) at a rate of approximately 1 ATA/min.” left out, “camera. […]” for “camera.”"}, "[3]": {"assay": "Blood beta-hydroxybutyrate (BHB) levels after removal from the hyperbaric chamber", "details": "5 g/kg, oral gavage", "method": "as §1, with “Rats were then placed into the hyperbaric chamber 29-30 minutes after treatment, and pressurized to 5 atmospheres as provided below, such that rats were exposed to the hyperbaric conditions at 60 minutes after treatment.” left out\n(§3) Latency to seizure (LS) was calculated from the moment at which the internal and the external chambers reached 5 ATA until the onset of CNS-OT seizures, as identified above. […]\n(§4) Body weights were collected for all rats prior to oral gavage of treatment. Blood concentrations of glucose and beta-hydroxybutyrate (BHB) were determined utilizing a commercially available glucose/ketone monitoring system (Precision Xtra® blood glucose and ketone meter) immediately following removal from the hyperbaric chamber. […]"}, "[4]": {"assay": "Blood glucose levels after removal from the hyperbaric chamber", "details": "10 g/kg, oral gavage; FIG. 7", "method": "as §1, with “Rats were then placed into the hyperbaric chamber 29-30 minutes after treatment, and pressurized to 5 atmospheres as provided below, such that rats were exposed to the hyperbaric conditions at 60 minutes after treatment.” left out\nas §3, §4"}},
  "note": "Marks after values point to notes of the source that are not given here.",
  "data": [
    {"smiles": "CC(=O)CC(=O)OCCC(C)OC(=O)CC(C)=O", "note": "(centres unmarked) [KE, 1,3-butanediol acetoacetate diester]", "values": [
      {"measurement": "T-test (p), latency to time of seizure vs control", "setting": "rat model of CNS-OT [1]; one dose oral gavage, 5 ATA O2, all collected data", "result": "0.256†"},
      {"measurement": "Latency to seizure compared to control", "setting": "rat model of CNS-OT [1]; oral gavage, FIG. 1, all data", "result": "about 2 ×"},
      {"measurement": "T-test (p), latency to time of seizure vs control", "setting": "rat model of CNS-OT [1]; oral gavage, outliers excluded (2 standard deviations)", "result": "0.023*"},
      {"measurement": "Latency to seizure compared to control (in words)", "setting": "rat model of CNS-OT [1]; outliers removed, FIG. 2", "result": "significantly increased latency to seizure compared to control"},
      {"measurement": "Seizure severity (score 0-3) vs control, in words", "setting": "rat model of CNS-OT [2]", "result": "some suppression"},
      {"measurement": "Blood BHB levels compared to control", "setting": "[3]; FIG. 6", "result": "about 3 ×"},
      {"measurement": "T-test (p), BHB levels vs control", "setting": "[3]; all collected data", "result": "0.0012**"},
      {"measurement": "Blood glucose levels (in words)", "setting": "[4]", "result": "highest blood glucose levels"}
    ]}
  ]
}
